Data: PubChem BioAssay AID2060498 (Molecular Pharmacology Branch, DTP, NCI, 2025)
pIC50: −log10 of the molar value.

Test system: 171881-019-R-J1-PDC tumor spheroids, viability
Test: Anticancer human tumor 171881-019-R-J1-PDC patient-derived invasive breast carcinoma cell line growth inhibition [GQUAD]
Conditions: spheroids with HUVEC and MSC; for pIC50: curve of first compound; for viability, T/C: stronger effect = lower value
Method in brief: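 Tumor cells were grown as complex spheroids with HUVEC endothelial cells and mesenchymal stem cells as stroma. G-quadruplex stabilizers were combined with targeted agents over half-log dilutions from near the clinical Cmax, or from 10 microM.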

[1] = second compound 0.0316 µM, first compound 0.0316 µM
[2] = second compound 0.0316 µM, first compound 0.1 µM
[3] = second compound 0.0316 µM, first compound 0.316 µM
[4] = second compound 0.0316 µM, first compound 1 µM
[5] = second compound 0.0316 µM, first compound 3.16 µM
[6] = second compound 0.0316 µM, first compound 10 µM
[7] = second compound 0.1 µM, first compound 0.0316 µM
[8] = second compound 0.1 µM, first compound 0.1 µM
[9] = second compound 0.1 µM, first compound 0.316 µM
[10] = second compound 0.1 µM, first compound 1 µM
[11] = second compound 0.1 µM, first compound 3.16 µM
[12] = second compound 0.1 µM, first compound 10 µM
[13] = second compound 0.316 µM, first compound 0.0316 µM
[14] = second compound 0.316 µM, first compound 0.1 µM
[15] = second compound 0.316 µM, first compound 0.316 µM
[16] = second compound 0.316 µM, first compound 1 µM
[17] = second compound 0.316 µM, first compound 3.16 µM
[18] = second compound 0.316 µM, first compound 10 µM
[19] = second compound 1 µM, first compound 0.0316 µM
[20] = second compound 1 µM, first compound 0.1 µM
[21] = second compound 1 µM, first compound 0.316 µM
[22] = second compound 1 µM, first compound 1 µM
[23] = second compound 1 µM, first compound 3.16 µM
[24] = second compound 1 µM, first compound 10 µM
[25] = second compound 3.16 µM, first compound 0.0316 µM
[26] = second compound 3.16 µM, first compound 0.1 µM
[27] = second compound 3.16 µM, first compound 0.316 µM
[28] = second compound 3.16 µM, first compound 1 µM
[29] = second compound 3.16 µM, first compound 3.16 µM
[30] = second compound 3.16 µM, first compound 10 µM
[31] = second compound 10 µM, first compound 0.0316 µM
[32] = second compound 10 µM, first compound 0.1 µM
[33] = second compound 10 µM, first compound 0.316 µM
[34] = second compound 10 µM, first compound 1 µM
[35] = second compound 10 µM, first compound 3.16 µM
[36] = second compound 10 µM, first compound 10 µM
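Also: spheroids exposed to compounds for 7 days.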
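For viability, T/C in this document: 100% = DMSO vehicle control viability.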

C#Cc1c(F)ccc2cc(O)cc(-c3ncc4c(N5CC6CCC(C5)N6)nc(OCC56CCCN5CC(F)C6)nc4c3F)c12 (stereo not drawn) + Cc1[nH]c2ccc(F)cc2c1-c1nc2c3cccnc3c3ncccc3c2[nH]1
pIC50 (second compound 0.0316 µM): 6.22
pIC50 (second compound 0.1 µM): 6.24
pIC50 (second compound 0.316 µM): 6.55
pIC50 (second compound 1 µM): 7.35
pIC50 (second compound 3.16 µM): > 7.50
pIC50 (second compound 10 µM): > 7.50
viability, T/C [1]: 103%
viability, T/C [2]: 69.3%
viability, T/C [3]: 60.6%
viability, T/C [4]: 42.9%
viability, T/C [5]: 24.6%
viability, T/C [6]: 7.54%
viability, T/C [7]: 92.8%
viability, T/C [8]: 75.1%
viability, T/C [9]: 59%
viability, T/C [10]: 41.2%
viability, T/C [11]: 25.1%
viability, T/C [12]: 6.93%
viability, T/C [13]: 82.7%
viability, T/C [14]: 62.3%
viability, T/C [15]: 46.7%
viability, T/C [16]: 31%
viability, T/C [17]: 30%
viability, T/C [18]: 4.2%
viability, T/C [19]: 55.6%
viability, T/C [20]: 39.8%
viability, T/C [21]: 36.8%
viability, T/C [22]: 23.4%
viability, T/C [23]: 22.9%
viability, T/C [24]: 0.29%
viability, T/C [25]: 6.7%
viability, T/C [26]: 3.48%
viability, T/C [27]: 3.47%
viability, T/C [28]: 2.21%
viability, T/C [29]: 1.89%
viability, T/C [30]: 0.17%
viability, T/C [31]: 23.8%
viability, T/C [32]: 27.4%
viability, T/C [33]: 15.8%
viability, T/C [34]: 15%
viability, T/C [35]: 6.1%
viability, T/C [36]: 0.16%

CC(=O)O[C@H]1C(=O)[C@@]2(C)[C@H]([C@H](OC(=O)c3ccccc3)[C@]3(O)C[C@H](OC(=O)[C@H](O)[C@@H](NC(=O)c4ccccc4)c4ccccc4)C(C)=C1C3(C)C)[C@]1(OC(C)=O)CO[C@@H]1C[C@@H]2O + Cc1[nH]c2ccc(F)cc2c1-c1nc2c3cccnc3c3ncccc3c2[nH]1
pIC50 (second compound 0.0316 µM): > 7.50
pIC50 (second compound 0.1 µM): 7.43
pIC50 (second compound 0.316 µM): 7.49
pIC50 (second compound 1 µM): > 7.50
pIC50 (second compound 3.16 µM): > 7.50
pIC50 (second compound 10 µM): > 7.50
viability, T/C [1]: 52.2%
viability, T/C [2]: 32.3%
viability, T/C [3]: 35.5%
viability, T/C [4]: 30.8%
viability, T/C [5]: 28.9%
viability, T/C [6]: 30.1%
viability, T/C [7]: 52.5%
viability, T/C [8]: 33.2%
viability, T/C [9]: 29.5%
viability, T/C [10]: 31%
viability, T/C [11]: 28.3%
viability, T/C [12]: 28.7%
viability, T/C [13]: 50.2%
viability, T/C [14]: 35.5%
viability, T/C [15]: 28.8%
viability, T/C [16]: 29.5%
viability, T/C [17]: 29.7%
viability, T/C [18]: 26.8%
viability, T/C [19]: 41.2%
viability, T/C [20]: 30.2%
viability, T/C [21]: 32.1%
viability, T/C [22]: 24.9%
viability, T/C [23]: 29.7%
viability, T/C [24]: 24.6%
viability, T/C [25]: 6.75%
viability, T/C [26]: 4.71%
viability, T/C [27]: 4.42%
viability, T/C [28]: 3.51%
viability, T/C [29]: 5.16%
viability, T/C [30]: 3.23%
viability, T/C [31]: 27.3%
viability, T/C [32]: 25.1%
viability, T/C [33]: 17.3%
viability, T/C [34]: 21.1%
viability, T/C [35]: 23.2%
viability, T/C [36]: 18.3%

Nc1ccn(C2OC(CO)C(O)C2(F)F)c(=O)n1 (stereo not drawn) + Cc1[nH]c2ccc(F)cc2c1-c1nc2c3cccnc3c3ncccc3c2[nH]1
pIC50 (second compound 0.0316 µM): > 7.50
pIC50 (second compound 0.1 µM): > 7.50
pIC50 (second compound 0.316 µM): > 7.50
pIC50 (second compound 1 µM): > 7.50
pIC50 (second compound 3.16 µM): > 7.50
pIC50 (second compound 10 µM): > 7.50
viability, T/C [1]: 25.9%
viability, T/C [2]: 28.6%
viability, T/C [3]: 39.9%
viability, T/C [4]: 38.6%
viability, T/C [5]: 36.5%
viability, T/C [6]: 31.6%
viability, T/C [7]: 25.8%
viability, T/C [8]: 30.9%
viability, T/C [9]: 38.6%
viability, T/C [10]: 41.2%
viability, T/C [11]: 35.9%
viability, T/C [12]: 31.3%
viability, T/C [13]: 26.7%
viability, T/C [14]: 29.6%
viability, T/C [15]: 35.7%
viability, T/C [16]: 35.2%
viability, T/C [17]: 38.6%
viability, T/C [18]: 31.7%
viability, T/C [19]: 26.7%
viability, T/C [20]: 28.6%
viability, T/C [21]: 38%
viability, T/C [22]: 35.8%
viability, T/C [23]: 39.1%
viability, T/C [24]: 31.1%
viability, T/C [25]: 18.5%
viability, T/C [26]: 14%
viability, T/C [27]: 19.1%
viability, T/C [28]: 16.8%
viability, T/C [29]: 19.9%
viability, T/C [30]: 16.2%
viability, T/C [31]: 20.3%
viability, T/C [32]: 23.7%
viability, T/C [33]: 27.2%
viability, T/C [34]: 28.6%
viability, T/C [35]: 26.6%
viability, T/C [36]: 26.1%

O=c1[nH]cc(F)c(=O)[nH]1 + Cc1[nH]c2ccc(F)cc2c1-c1nc2c3cccnc3c3ncccc3c2[nH]1
pIC50 (second compound 0.0316 µM): < 5.00
pIC50 (second compound 0.1 µM): < 5.00
pIC50 (second compound 0.316 µM): < 5.00
pIC50 (second compound 1 µM): < 5.00
pIC50 (second compound 3.16 µM): > 7.50
pIC50 (second compound 10 µM): > 7.50
viability, T/C [1]: 75.7%
viability, T/C [2]: 64.5%
viability, T/C [3]: 62.7%
viability, T/C [4]: 54.1%
viability, T/C [5]: 47.7%
viability, T/C [6]: 53%
viability, T/C [7]: 80.5%
viability, T/C [8]: 70.7%
viability, T/C [9]: 60.9%
viability, T/C [10]: 54.7%
viability, T/C [11]: 50.5%
viability, T/C [12]: 53.5%
viability, T/C [13]: 73.1%
viability, T/C [14]: 65.8%
viability, T/C [15]: 59.3%
viability, T/C [16]: 52.7%
viability, T/C [17]: 58.7%
viability, T/C [18]: 52%
viability, T/C [19]: 68.6%
viability, T/C [20]: 55.4%
viability, T/C [21]: 56.6%
viability, T/C [22]: 50.2%
viability, T/C [23]: 54.3%
viability, T/C [24]: 48.8%
viability, T/C [25]: 21%
viability, T/C [26]: 21.6%
viability, T/C [27]: 30.6%
viability, T/C [28]: 23.8%
viability, T/C [29]: 24.2%
viability, T/C [30]: 24.7%
viability, T/C [31]: 44.4%
viability, T/C [32]: 47.8%
viability, T/C [33]: 47.3%
viability, T/C [34]: 42%
viability, T/C [35]: 52.1%
viability, T/C [36]: 38.8%
